Data from patent publication US9365541B2, “Compounds for use in the treatment of parasitic diseases” (IRBM—SCIENCE PARK S.P.A., priority 2012, dated 2016).

Experiments:
[1] = test system: Plasmodium falciparum 3D7; test: P. falciparum growth inhibition assay (Pf-LDH); assay type: cell-based; settings: Plasmodium falciparum, Erythrocyte; P. falciparum 3D7 infected erythrocytes, 72 h incubation, PfLDH readout
Description: Basic culture of Plasmodium falciparum 3D7 parasites (Malaria Research and Reference Reagent Resource Center (MR4), MR4 Number: MRA-102).
Starting with a culture with a parasitemia of about 10% (and 5% hematocrit), 0.5 ml of the culture is placed in a fresh 100 mm petri dish with 0.95 ml of fresh erythrocytes (50% hematocrit) and 8.55 ml of culture medium, giving a new starting parasitemia of 0.5%. The petri dish is then incubated at 37° C. in a humidified gas-tight plastic box flushed with a gas mixture consisting of 93% N2, 4% CO2, and 3% O2. The culture medium is changed daily. The supernatant is removed by gently tipping the dish without disturbing the settled cells and aspirating the medium with a Pasteur pipette connected to a vacuum pump. A small amount of the concentrated cells is taken to prepare a blood smear for determination of the parasitemia. Normally, the cultures are split twice a week. If the parasites are growing very slowly then fresh erythrocytes are added to the culture no later than after 7 days. The cultures are then split 1:2 if the parasitemia is lower than 0.5%. To avoid the necessity of daily medium change on weekends, a culture with a 2.5% hematocrit and 0.1-0.2% parasitemia is set up and can be left for 3 days without medium change.
Standard medium consists of RPMI 1640, supplemented with 25 mM HEPES, 24 mM NaHCO3, 0.36 mM hypoxanthine, 100 μg/ml Neomycin, 5 g/1 Albumax® II, and washed human red blood cells (rbcs) A+.
P. falciparum Growth Inhibition Assay (Pf-LDH)
Compounds of the invention were assessed for in vitro antimalarial activity against a cloroquine sensitive (3D7) strain of the malaria parasite Plasmodium falciparum, using a lactate dehydrogenase (PfLDH) assay.
EC50 Determination by Pf-LDH Assay
384 plates (where compounds to be tested are dispensed) with 25 μl of parasite inoculum (parasitemia: 0.25%, hematocrit: 2%) are incubated at 37° C. in an atmosphere of 4% CO2, 3% O2, 93% N2. After 72 h of incubation, plates are frozen at −70° C. overnight and thawed at room temperature for at least 4 h. To evaluate PfLDH activity, 70 μl of freshly made reaction mix (143 mM sodium L-lactate, 143 μM 3-acetyl pyridine adenine dinucleotide (APAD), 178.75 μM Nitro Blue tetrazolium chloride (NBT), 286 μg/ml diaphorase (2.83 U/ml), 0.7% Tween 20, 100 mM Tris-HCl pH 8.0) is dispensed using a Multidrop Combi dispenser. Plates are shaken to ensure mixing and absorbance at 650 nm is monitored in a plate reader after 10 min of incubation at room temperature.
Negative controls (0% Effect) are produced by addition of DMSO to the proper wells.
Positive controls (100% Effect) are produced by addition of 150 nM Artemisinin (Sigma-Aldrich, 361593)
After result normalization using positive and negative controls, compound potency is determined by fitting the following equation: % inh=Ymin+(Ymax−Ymin)/(1+(X/EC50)^slope)) Where: • Ymin=minimum percentage effect • Ymax=maximum percentage effect • EC50=the concentration of the compound at which 50% effect is reached • Slope=the slope of the curve calculated at the EC50 Histone Hyperacetylation and Immunodetection of Altered Histone Modifications Assay

[2] = target: T1, human HDAC1 (Homo sapiens, UniProt Q13547); test: Homo sapiens HDAC1 inhibition assay (Fluor-de-Lys, enzymatic); assay type: biochemical; settings: human HDAC enzymatic assay; read-out: hHDAC IC50
T1 construct: made in house; host or cells: HeLa (ATCC CCL-2), mammalian cells
Description: Biology Homo sapiens HDAC1 Inhibition Assay Overview:
The aim of the assay is to evaluate the inhibition of the deacetylase activity of human HDAC1. To such goal an acetylated substrate is added to the enzyme mix; the resulting enzymatic product is converted to a fluorescent molecule by the addition the enzyme trypsine (developer solution). Fluorescence intensity is inversely proportional to the rate of inhibition of the enzyme (as indicated in the material section below).
Reagents of the HDAC Fluorescent Activity Assay are purchased from Enzo Life Sciences (http://www.enzolifesciences.com/BML-AK500/fluor-de-lys-hdac-fluorometric-activity-assay-kit/) and feature the Fluor-de-Lys™ Substrate/Developer System.
c) Trichostatin A (TSA) Stock
TSA (Sigma-Aldrich, T8552) is provided as a 10 mM stock solution in 100% dimethylsulfoxide (DMSO).
Diluted Substrate Solution
The final concentration in the assay is 20 μM.
Diluted Developer Solution
2 μM [final] TSA to this solution increases its ability to stop the reaction.
The HDAC1 enzyme is diluted in assay buffer prior to each use from a fresh aliquot of enzyme.
The final concentration in the assay is 1-2 nM.
Test compounds should be prepared in 100% DMSO and transferred to the assay by a nano volume dispenser to reach the appropriate concentration and the appropriate DMSO concentration (0.25%) in the reaction.

T1 sequence (Q13547 whole entry): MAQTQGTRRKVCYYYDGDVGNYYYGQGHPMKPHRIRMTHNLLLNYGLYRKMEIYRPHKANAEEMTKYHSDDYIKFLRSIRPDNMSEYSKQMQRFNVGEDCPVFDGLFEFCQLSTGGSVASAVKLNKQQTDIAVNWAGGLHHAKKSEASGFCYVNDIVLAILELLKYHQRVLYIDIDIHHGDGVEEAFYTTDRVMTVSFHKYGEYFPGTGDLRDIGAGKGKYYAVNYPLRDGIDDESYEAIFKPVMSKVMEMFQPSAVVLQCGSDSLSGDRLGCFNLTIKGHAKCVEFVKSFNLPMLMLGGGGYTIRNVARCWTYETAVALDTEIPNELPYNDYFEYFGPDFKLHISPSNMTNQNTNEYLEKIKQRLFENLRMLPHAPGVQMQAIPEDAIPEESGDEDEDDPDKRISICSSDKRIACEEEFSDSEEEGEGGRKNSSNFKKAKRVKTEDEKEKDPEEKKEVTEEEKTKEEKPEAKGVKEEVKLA

Question: `CNC(=O)CCCCC[C@H](NC(=O)CN1CCCCC1)c1ncc(-c2ccc3ccccc3c2)[nH]1` [Entry 1] was tested. Which EC50 [1] did it give?
Answer: Its EC50 is 1 to 5 µM.

Question: What about the IC50 [2] of the same compound?
Answer: The IC50 was 1 to 5 µM.

Question: With `CNC(=O)CCCCC[C@H](NC(=O)c1ccnc2c1CCCN2)c1ncc(-c2ccc3ccccc3c2)[nH]1` [Entry 2, (S)-N-(7-(methylamino)-1-(5-(naphthalen-2-yl)-1H-imidazol-2-yl)-7-oxoheptyl)-5,6,7,8-tetrahydro-1,8-naphthyridine-4-carboxamide] as the compound, how does the EC50 [1] read?
Answer: Its EC50 is 1 to 5 µM.

Question: And the IC50 [2]?
Answer: Its IC50 is 1 to 5 µM.

Question: What does the source list for `CNC(=O)CCCCC[C@H](NS(=O)(=O)c1cccc([N+](=O)[O-])c1)c1ncc(-c2ccc3ccccc3c2)[nH]1` [Entry 3]?
Answer: EC50 [1]: < 1 µM; IC50 [2]: < 1 µM

Question: `CNC(=O)CCCCC[C@H](NC(=O)[C@H]1CCN(C)C1)c1ncc(-c2ccc3ccccc3c2)[nH]1` [Entry 4, (S)-1-methyl-N-((S)-7-(methylamino)-1-(5-(naphthalen-2-yl)-1H-imidazol-2-yl)-7-oxo-heptyl)pyrrolidine-3-carboxamide] was tested. Which EC50 [1] did it give?
Answer: The EC50 was 1 to 5 µM.

Question: What about the IC50 [2] of the same compound?
Answer: Its IC50 is less than 1 µM.

Question: How did the EC50 [1] turn out when `CNC(=O)CCCCC[C@H](NC(=O)C1CCN(C)CC1)c1ncc(-c2ccc3ccccc3c2)[nH]1` [Entry 5, (S)-1-methyl-N-(7-(methylamino)-1-(5-(naphthalen-2-yl)-1H-imidazol-2-yl)-7-oxo-heptyl)piperidine-4-carboxamide] was run?
Answer: Its EC50 is 1 to 5 µM.

Question: What about the IC50 [2] of the same compound?
Answer: The IC50 was less than 1 µM.

Question: Which results are given for `CNC(=O)CCCCC[C@H](NC(=O)Cn1ccnn1)c1ncc(-c2cc3ccccc3nc2OC)[nH]1` [Entry 6, (S)-7-(2-(1H-1,2,3-triazol-1-yl)acetamido)-7-(5-(2-methoxyquinolin-3-yl)-1H-imidazol-2-yl)-N-methylheptanamide]?
Answer: EC50 [1]: 1 to 5 µM; IC50 [2]: 1 to 5 µM

Question: With `CNC(=O)CCCCC[C@H](NC(=O)Cn1nnc2ccccc21)c1ncc(-c2cc3ccccc3nc2OC)[nH]1` [Entry 7] as the compound, how does the EC50 [1] read?
Answer: Its EC50 is 1 to 5 µM.

Question: And the IC50 [2]?
Answer: The IC50 was less than 1 µM.

Question: Which EC50 [1] does the source give for `CCc1nc2ccccc2n1CCC(=O)N[C@@H](CCCCCC(=O)NC)c1ncc(-c2cc3ccccc3nc2OC)[nH]1` [Entry 8, (S)-7-(3-(2-ethyl-1H-benzo[d]imidazol-1-yl)propanamido)-7-(5-(2-methoxyquinolin-3-yl)-1H-imidazol-2-yl)-N-methylheptanamide] here?
Answer: Its EC50 is 1 to 5 µM.

Question: What about the IC50 [2] of the same compound?
Answer: The IC50 was less than 1 µM.

Question: What does the source list for `CNC(=O)CCCCC[C@H](NC(=O)c1cc(C)nn1C)c1ncc(-c2cc3ccccc3nc2OC)[nH]1` [Entry 9, (S)-N-(1-(5-(2-methoxyquinolin-3-yl)-1H-imidazol-2-yl)-7-(methylamino)-7-oxoheptyl)-1,3-dimethyl-1H-pyrazole-5-carboxamide]?
Answer: EC50 [1]: 1 to 5 µM; IC50 [2]: < 1 µM

Question: With `CNC(=O)CCCCC[C@H](NC(=O)c1cncs1)c1ncc(-c2ccc3cccnc3c2)[nH]1` [Entry 10] as the compound, how does the EC50 [1] read?
Answer: The EC50 was 1 to 5 µM.

Question: And the IC50 [2]?
Answer: Its IC50 is greater than 5 µM.

Question: For `CNC(=O)CCCCC[C@H](NC(=O)Cn1cncn1)c1ncc(-c2ccc(-n3cccn3)cc2)[nH]1` [Entry 11, (S)-7-(2-(1H-1,2,4-triazol-1-yl)acetamido)-7-(5-(4-(1H-pyrazol-1-yl)phenyl)-1H-imidazol-2-yl)-N-methylheptanamide], which EC50 [1] is on record?
Answer: The EC50 was greater than 5 µM.

Question: What about the IC50 [2] of the same compound?
Answer: The IC50 was greater than 5 µM.

Question: With `CNC(=O)CCCCC[C@H](NC(=O)c1cnsc1)c1ncc(-c2ccc(-n3cccn3)cc2)[nH]1` [Entry 12, (S)-N-(1-(5-(4-(1H-pyrazol-1-yl)phenyl)-1H-imidazol-2-yl)-7-(methylamino)-7-oxoheptyl)isothiazole-4-carboxamide] as the compound, how does the EC50 [1] read?
Answer: The EC50 was 1 to 5 µM.

Question: And the IC50 [2]?
Answer: The IC50 was 1 to 5 µM.

Question: With `CNC(=O)CCCCC[C@H](NC(=O)c1cccc2nc(C)c(C)nc12)c1ncc(-c2ccc3ccccc3c2)[nH]1` [Entry 13, (S)-2,3-dimethyl-N-(7-(methylamino)-1-(5-(naphthalen-2-yl)-1H-imidazol-2-yl)-7-oxo-heptyl)quinoxaline-5-carboxamide] as the compound, how does the EC50 [1] read?
Answer: Its EC50 is 1 to 5 µM.

Question: And the IC50 [2]?
Answer: Its IC50 is 1 to 5 µM.

Question: Which results are given for `CNC(=O)CCCCC[C@H](NC(=O)c1cncs1)c1ncc(-c2ccc3cc(OC)cnc3c2)[nH]1` [Entry 14]?
Answer: EC50 [1]: 1 to 5 µM; IC50 [2]: 1 to 5 µM

Question: Which results are given for `CNC(=O)CCCCC[C@H](NC(=O)Cc1cnc2ccccn12)c1ncc(-c2ccc3ccncc3c2)[nH]1` [Entry 15, (S)-7-(2-(imidazo[1,2-a]pyridin-3-yl)acetamido)-7-(5-(isoquinolin-7-yl)-1H-imidazol-2-yl)-N-methylheptanamide]?
Answer: EC50 [1]: 1 to 5 µM; IC50 [2]: < 1 µM

Question: How did the EC50 [1] turn out when `CNC(=O)CCCCC[C@H](NC(=O)c1ccns1)c1ncc(-c2ccc(-c3ccn(C)n3)cc2)[nH]1` [Entry 16, (S)-N-(1-(5-(4-(1-methyl-1H-pyrazol-3-yl)phenyl)-1H-imidazol-2-yl)-7-(methylamino)-7-oxoheptyl)isothiazole-5-carboxamide] was run?
Answer: Its EC50 is less than 1 µM.

Question: What about the IC50 [2] of the same compound?
Answer: Its IC50 is 1 to 5 µM.

Question: Which EC50 [1] does the source give for `CNC(=O)CCCCC[C@H](NC(=O)c1cnc(C)s1)c1ncc(-c2ccc(-c3ccn(C)n3)cc2)[nH]1` [Entry 17, (S)-2-methyl-N-(1-(5-(4-(1-methyl-1H-pyrazol-3-yl)phenyl)-1H-imidazol-2-yl)-7-(methylamino)-7-oxoheptyl)thiazole-5-carboxamide] here?
Answer: The EC50 was less than 1 µM.

Question: What about the IC50 [2] of the same compound?
Answer: The IC50 was 1 to 5 µM.

Question: `CNC(=O)CCCCC[C@H](NC(=O)C1CN(C)C1)c1ncc(-c2cc3ccccc3[nH]c2=O)[nH]1` [Entry 18, (S)-1-methyl-N-(7-(methylamino)-7-oxo-1-(5-(2-oxo-1,2-dihydroquinolin-3-yl)-1H-imidazol-2-yl)heptyl)azetidine-3-carboxamide] was tested. Which EC50 [1] did it give?
Answer: Its EC50 is greater than 5 µM.

Question: And the IC50 [2]?
Answer: Its IC50 is 1 to 5 µM.

Question: Which EC50 [1] does the source give for `CNC(=O)CCCCC[C@H](NC(=O)c1cncs1)c1ncc(-c2ccc3nc(C(F)(F)F)ccc3c2)[nH]1` [Entry 19, (S)-N-(7-(methylamino)-7-oxo-1-(5-(2-(trifluoro-methyl)quinolin-6-yl)-1H-imidazol-2-yl)heptyl)thiazole-5-carboxamide] here?
Answer: Its EC50 is 1 to 5 µM.

Question: What about the IC50 [2] of the same compound?
Answer: The IC50 was 1 to 5 µM.

Question: Which EC50 [1] does the source give for `CNC(=O)CCCCC[C@H](NC(=O)Cn1nnc(N2CCCC2)n1)c1ncc(-c2ccc3ccccc3c2)[nH]1` [Entry 20] here?
Answer: The EC50 was 1 to 5 µM.

Question: What about the IC50 [2] of the same compound?
Answer: Its IC50 is less than 1 µM.

Question: `CNC(=O)CCCCC[C@H](NC(=O)Cc1ccccc1)c1ncc(-c2ccc3ccccc3c2)[nH]1` [Entry 21] was tested. Which EC50 [1] did it give?
Answer: Its EC50 is 1 to 5 µM.

Question: And the IC50 [2]?
Answer: The IC50 was less than 1 µM.

Question: For `COc1ccc2[nH]c(C)c(CC(=O)N[C@@H](CCCCCC(N)=O)c3ncc(-c4ccc5ccccc5c4)[nH]3)c2c1` [Entry 96, (S)-7-(2-(5-methoxy-2-methyl-1H-indol-3-yl)acetamido)-7-(5-(naphthalen-2-yl)-1H-imidazol-2-yl)heptanamide], which EC50 [1] is on record?
Answer: The EC50 was less than 1 µM.

Question: `CNC(=O)CCCCC[C@H](NC(=O)[C@H]1CCN(C)C1)c1ncc(-c2ccc3ccccc3c2)[nH]1` [Entry 149, (S)-1-methyl-N-((S)-7-(methylamino)-1-(5-(naphthalen-2-yl)-1H-imidazol-2-yl)-7-oxo-heptyl)pyrrolidine-3-carboxamide] was tested. Which IC50 [2] did it give?
Answer: The IC50 was 1 to 5 µM.

Question: For `CNC(=O)CCCCC[C@H](NC(=O)c1cncs1)c1ncc(-c2cc3ccccc3nc2OC)[nH]1` [Entry 178, (S)-N-(1-(5-(2-methoxyquinolin-3-yl)-1H-imidazol-2-yl)-7-(methylamino)-7-oxoheptyl)thiazole-5-carboxamide], which EC50 [1] is on record?
Answer: The EC50 was less than 1 µM.
